Results reported in ChEMBL document CHEMBL1201862, “PubChem BioAssay data set” (2004).
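Cultured in 96-well plates, cells were exposed to test compound for 48 hours across five concentrations. At the GI50, growth is halved.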 Active and inactive are the calls of the source. Cut-off read from the data, not from the text of the source: active = GI50 up to about 1.1 µM and inactive = higher.

Key:
Test in all cases: NCI tumour cell line growth inhibition, 48 h
[1] = test system: SK-OV-3
[2] = test system: HOP-62
[3] = test system: SNB-78
[4] = test system: CCRF-CEM
[5] = test system: TK-10
[6] = test system: U-251
[7] = test system: 786-0
[8] = test system: SK-MEL-2
[9] = test system: M14
[10] = test system: RXF 393
[11] = test system: SF-268
[12] = test system: NCI-H23
[13] = test system: UO-31
[14] = test system: OVCAR-3
[15] = test system: MDA-N
[16] = test system: PC-3
[17] = test system: MDA-MB-435
[18] = test system: BT-549
[19] = test system: MCF7
[20] = test system: T47D

Compound | GI50 [1] | GI50 [2] | GI50 [3] | GI50 [4] | GI50 [5] | GI50 [6] | GI50 [7] | GI50 [8] | GI50 [9] | GI50 [10] | GI50 [11] | GI50 [12] | GI50 [13] | GI50 [14] | GI50 [15] | GI50 [16] | GI50 [17] | GI50 [18] | GI50 [19] | GI50 [20]
N#Cc1cc([N+](=O)[O-])ccc1NC(=O)C(F)(F)F | > 100 µM (inactive) | > 100 µM (inactive) | > 100 µM (inactive) | > 84.7 µM (inactive) | > 100 µM (inactive) | > 100 µM (inactive) | > 49.7 µM (inactive) | > 100 µM (inactive) | > 100 µM (inactive) | > 56.6 µM (inactive) | > 100 µM (inactive) | > 100 µM (inactive) | > 100 µM (inactive) | > 100 µM (inactive) | – | – | – | – | – | –
Cc1ccc(SC(C)/C=C/NNC2=NN=C(c3ccccc3)C(c3ccccc3)N2)cc1 (stereo not given) | 32.2 µM (inactive) | – | 66.7 µM (inactive) | 21.5 µM (inactive) | 75.7 µM (inactive) | – | 39.6 µM (inactive) | 23.4 µM (inactive) | 38 µM (inactive) | – | 28 µM (inactive) | 48.9 µM (inactive) | 12.4 µM (inactive) | 25.5 µM (inactive) | – | – | – | – | – | –
COC(=O)/C(=N/NC(C)(C)C)C(C(=O)C=C(C)C)C(=O)C(=O)Nc1ccc(Cl)cc1C (stereo not given) | > 100 µM (inactive) | > 100 µM (inactive) | > 10 µM (inactive) | > 100 µM (inactive) | > 100 µM (inactive) | > 100 µM (inactive) | > 100 µM (inactive) | > 100 µM (inactive) | > 100 µM (inactive) | – | > 100 µM (inactive) | > 100 µM (inactive) | > 100 µM (inactive) | > 100 µM (inactive) | – | – | – | – | – | –
CCOC(=O)C1=NN(c2ccc([N+](=O)[O-])cc2)[C@@]2(C)C[C@]3(c4ccccc4)N(c4ccc([N+](=O)[O-])cc4)N=C(C(=O)OCC)N3c3ccccc3N12 | > 100 µM (inactive) | > 100 µM (inactive) | – | > 100 µM (inactive) | > 100 µM (inactive) | > 100 µM (inactive) | > 100 µM (inactive) | > 100 µM (inactive) | 53.2 µM (inactive) | > 100 µM (inactive) | > 100 µM (inactive) | > 100 µM (inactive) | > 100 µM (inactive) | > 100 µM (inactive) | > 100 µM (inactive) | > 100 µM (inactive) | > 100 µM (inactive) | > 100 µM (inactive) | > 100 µM (inactive) | > 100 µM (inactive)
COC(=O)C(=O)C(C(C)=O)C(=O)NCc1ccc(OC)c(OC)c1 (stereo not given) | > 100 µM (inactive) | > 100 µM (inactive) | > 100 µM (inactive) | > 100 µM (inactive) | > 100 µM (inactive) | > 100 µM (inactive) | > 100 µM (inactive) | > 100 µM (inactive) | > 100 µM (inactive) | 78.5 µM (inactive) | > 100 µM (inactive) | > 100 µM (inactive) | > 100 µM (inactive) | > 100 µM (inactive) | – | – | – | – | – | –
CC1(C)OC2C(=O)OC(COCc3ccccc3)C2O1 (stereo not given) | – | > 100 µM (inactive) | > 100 µM (inactive) | > 100 µM (inactive) | > 100 µM (inactive) | > 100 µM (inactive) | > 100 µM (inactive) | > 100 µM (inactive) | > 100 µM (inactive) | > 100 µM (inactive) | > 100 µM (inactive) | > 100 µM (inactive) | > 100 µM (inactive) | > 100 µM (inactive) | – | – | – | – | – | –
CN/N=C(\C(=O)Nc1ccc(C(F)(F)F)cc1[N+](=O)[O-])C(c1cnc2ccc([N+](=O)[O-])cc2n1)[N+](=O)[O-] (stereo not given) | > 100 µM (inactive) | 33 µM (inactive) | 61.7 µM (inactive) | 9.77 µM (inactive) | – | 78.5 µM (inactive) | 32.4 µM (inactive) | > 100 µM (inactive) | > 100 µM (inactive) | 30.1 µM (inactive) | 73.3 µM (inactive) | 62.7 µM (inactive) | 16 µM (inactive) | 28.6 µM (inactive) | – | – | – | – | – | –
Clc1ccc(Cc2nc3ccccc3nc2-c2cccc(Cl)c2)cc1 | 17.2 µM (inactive) | 17.8 µM (inactive) | – | 0.0311 µM (active) | 12.3 µM (inactive) | 4.68 µM (inactive) | 1.84 µM (inactive) | 3.24 µM (inactive) | 2.43 µM (inactive) | 2.04 µM (inactive) | 18.3 µM (inactive) | 13.5 µM (inactive) | 1.78 µM (inactive) | 4.21 µM (inactive) | 2.28 µM (inactive) | 2.26 µM (inactive) | 1.95 µM (inactive) | 4.49 µM (inactive) | 2.92 µM (inactive) | 3.35 µM (inactive)
COc1ccc(C2Oc3c(c(O)cc4c3[C@H](c3ccc(O)cc3O)[C@H](O)C(c3ccc(O)c(O)c3)O4)C[C@@H]2O)cc1O (stereo not given in full) | > 100 µM (inactive) | > 100 µM (inactive) | > 100 µM (inactive) | > 100 µM (inactive) | > 100 µM (inactive) | > 100 µM (inactive) | > 100 µM (inactive) | > 100 µM (inactive) | > 100 µM (inactive) | > 100 µM (inactive) | > 100 µM (inactive) | > 100 µM (inactive) | > 100 µM (inactive) | > 100 µM (inactive) | – | – | – | – | – | –
